Experimental data: PubChem BioAssay AID192 (DTP/NCI, 2004)
Values joined by “and” are separate entries in the source; they are usually repeats but may differ in a detail not shown here. Identical values can stand only once. Inconclusive results and toxic doses are left out. How the source made its calls: active means survival T/C of 150% or more; inactive means T/C below 125% in these data.

Test system: BDF1 mice, B16 melanoma ip, median survival T/C
Assay: NCI In Vivo Anticancer Drug Screen. Data for tumor model B16 Melanoma (intraperitoneal) in B6D2F1 (BDF1) mice
Conditions: endpoint: median survival time, higher = longer survival
Procedure, shortened: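 Vehicle-treated animals serve as the reference (C); treated animals (T) are scored for survival or tumor size after tumor transplantation.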

[1] = dose: 6.25 mg/kg/injection, schedule: Q01DX009 (ip), vehicle: saline
[2] = dose: 12.5 mg/kg/injection, schedule: Q01DX009 (ip), vehicle: saline
[3] = dose: 25.0 mg/kg/injection, schedule: Q01DX009 (ip), vehicle: saline
[4] = dose: 50.0 mg/kg/injection, schedule: Q01DX009 (ip), vehicle: saline
[5] = dose: 100.0 mg/kg/injection, schedule: Q01DX009 (ip), vehicle: saline
[6] = dose: 100.0 mg/kg/injection, schedule: Q01DX009 (ip), vehicle: Klucel (hydroxypropylcellulose) (HPC)
[7] = dose: 200.0 mg/kg/injection, schedule: Q01DX009 (ip), vehicle: Klucel (hydroxypropylcellulose) (HPC)
[8] = dose: 400.0 mg/kg/injection, schedule: Q01DX009 (ip), vehicle: Klucel (hydroxypropylcellulose) (HPC)
[9] = dose: 50.0 mg/kg/injection, schedule: Q01DX009 (ip), vehicle: Klucel (hydroxypropylcellulose) (HPC)
[10] = dose: 6.25 mg/kg/injection, schedule: Q01DX009 (ip), vehicle: Klucel (hydroxypropylcellulose) (HPC)
[11] = dose: 12.5 mg/kg/injection, schedule: Q01DX009 (ip), vehicle: Klucel (hydroxypropylcellulose) (HPC)
[12] = dose: 25.0 mg/kg/injection, schedule: Q01DX009 (ip), vehicle: Klucel (hydroxypropylcellulose) (HPC)

Measured: T/C

COC1N(C2CC(O)C(CO)O2)C(=O)NC(=O)C1(F)Br (configuration not stated)
inactive: dose: 1.56 mg/kg/injection, schedule: Q01DX009 (ip), vehicle: saline 100 % of control | dose: 3.12 mg/kg/injection, schedule: Q01DX009 (ip), vehicle: saline 87 % of control | dose: 5.0 mg/kg/injection, schedule: Q01DX009 (ip), vehicle: saline with Tween-80 106 % of control | [1] 102 % of control | dose: 10.0 mg/kg/injection, schedule: Q01DX009 (ip), vehicle: saline with Tween-80 109 % of control | [2] 108 % of control | dose: 20.0 mg/kg/injection, schedule: Q01DX009 (ip), vehicle: saline with Tween-80 104 % of control | [3] 88 % of control

CC(=O)[C@@]1(O)CC[C@H]2[C@@H]3C[C@H](C)C4=CC(=O)C=C[C@]4(C)[C@@]3(F)[C@@H](O)C[C@@]21C
inactive: dose: 25.0 mg/kg/injection, schedule: Q01DX009 (sc), vehicle: steriod suspending solution 102 % of control | dose: 50.0 mg/kg/injection, schedule: Q01DX009 (sc), vehicle: steriod suspending solution 107 % of control

O=C(O)c1cc(S(=O)O)ccc1O
inactive: dose: 10.0 mg/kg/injection, schedule: Q01DX009 (ip), vehicle: saline 103 % of control | dose: 20.0 mg/kg/injection, schedule: Q01DX009 (ip), vehicle: saline 106 % of control | dose: 40.0 mg/kg/injection, schedule: Q01DX009 (ip), vehicle: saline 98 % of control

CCc1ccc(NC2=NCCO2)cc1
inactive: dose: 12.5 mg/kg/injection, schedule: Q01DX009 (ip), vehicle: saline with Tween-80 102 % of control | dose: 25.0 mg/kg/injection, schedule: Q01DX009 (ip), vehicle: saline with Tween-80 97 % of control | dose: 50.0 mg/kg/injection, schedule: Q01DX009 (ip), vehicle: saline with Tween-80 91 % of control

C=CCOCC(O)CN(C)CC1CCCO1 (configuration not stated)
inactive: [3] 103 % of control | [4] 102 % of control | [5] 91 % of control

CCCCCCCCCCCCCCCCN(C(=S)c1ccccc1)c1ccccc1
inactive: [6] 94 % of control | [7] 95 % of control | [8] 97 % of control

C=CCCOC(C)=O
inactive: [9] 100 % of control | [6] 108 % of control | [7] 108 % of control

CCCCCC(CN(C)C)C(=O)/C=C\c1ccc(Cl)cc1Cl (configuration not stated)
inactive: [1] 105 % of control | [2] 97 % of control

C[C@@H]1CC[C@]2(C)CC[C@]3(C)C(=CC[C@@H]4[C@@]5(C)CC[C@@H](OC(=O)c6ccc(O)cc6)C(C)(C)[C@@H]5C[C@H](O)[C@]43C)[C@@H]2[C@H]1C(=O)O
inactive: dose: 0.02 mg/kg/injection, schedule: Q01DX009 (ip), vehicle: saline with Tween-80 96 % of control | dose: 0.05 mg/kg/injection, schedule: Q01DX009 (ip), vehicle: saline with Tween-80 91 % of control | dose: 0.1 mg/kg/injection, schedule: Q01DX009 (ip), vehicle: saline with Tween-80 88 % of control

Oc1ccc(Nc2c3ccccc3nc3c2ccc2ccccc23)cc1CN(CCCl)CCCl
inactive: dose: 0.3 mg/kg/injection, schedule: Q01DX009 (ip), vehicle: saline 100 % of control | dose: 0.45 mg/kg/injection, schedule: Q01DX009 (ip), vehicle: saline 117 % of control | dose: 0.8 mg/kg/injection, schedule: Q01DX009 (ip), vehicle: saline 100 % of control | dose: 1.2 mg/kg/injection, schedule: Q01DX009 (ip), vehicle: saline 107 % of control

N#CSc1ccc(S(N)(=O)=O)cc1
inactive: [10] 100 % of control | [11] 103 % of control

Cc1ccc(Oc2c3c(nc4ccccc24)CCCC3)cc1
inactive: dose: 100.0 mg/kg/injection, schedule: Q01DX009 (ip), vehicle: saline with Tween-80 110 % of control | dose: 200.0 mg/kg/injection, schedule: Q01DX009 (ip), vehicle: saline with Tween-80 107 % of control | dose: 400.0 mg/kg/injection, schedule: Q01DX009 (ip), vehicle: saline with Tween-80 92 % of control

CSCCC(NC(C)=O)C(=O)NNC(C)C (configuration not stated)
inactive: [3] 105 % of control | [4] 88 % of control | [5] 123 % of control | dose: 200.0 mg/kg/injection, schedule: Q01DX009 (ip), vehicle: saline 88 % of control | dose: 400.0 mg/kg/injection, schedule: Q01DX009 (ip), vehicle: saline 97 % of control

C/C=C(\C)C(=O)OC1C(C)=C2C(C1OC(=O)CCCC)C(C)(OC(C)=O)CC(OC(=O)CCCC)C1(O)C2OC(=O)C1(C)O (configuration not stated)
inactive: dose: 0.37 mg/kg/injection, schedule: Q01DX009 (ip), vehicle: Klucel (hydroxypropylcellulose) (HPC) 90 % of control | dose: 0.75 mg/kg/injection, schedule: Q01DX009 (ip), vehicle: Klucel (hydroxypropylcellulose) (HPC) 101 % of control | dose: 1.5 mg/kg/injection, schedule: Q01DX009 (ip), vehicle: Klucel (hydroxypropylcellulose) (HPC) 106 % of control | dose: 3.0 mg/kg/injection, schedule: Q01DX009 (ip), vehicle: Klucel (hydroxypropylcellulose) (HPC) 89 % of control

NN(CC1=COc2ccccc2O1)Cc1ccccc1
inactive: [11] 94 % of control | [12] 94 % of control | [9] 91 % of control | [6] 105 % of control | dose: 200.0 mg/kg/injection, schedule: Q04DX003 (ip), vehicle: Klucel (hydroxypropylcellulose) (HPC) 91 % of control

COc1ccc(NC(=O)c2cccc(C(=O)Nc3ccc(OC)cc3)c2)cc1
inactive: [6] 102 % of control | [7] 108 % of control | [8] 102 % of control

CCN(CC)CCOc1ccc2c(c1)C(=O)c1cc(OCCN(CC)CC)ccc1-2
inactive: dose: 13.0 mg/kg/injection, schedule: Q01DX009 (ip), vehicle: saline 124 % of control | dose: 21.6 mg/kg/injection, schedule: Q01DX009 (ip), vehicle: saline 123 % of control | [5] 124 % of control

C=C1N(C)c2ccc(Cl)cc2C1(C)C
inactive: [11] 90 % of control | [12] 90 % of control | [9] 88 % of control | [6] 87 % of control

O=C(CCl)N1c2ccccc2Sc2ccc(Cl)cc21
inactive: dose: 6.25 mg/kg/injection, schedule: Q01DX009 (ip), vehicle: other 107 % of control | dose: 12.5 mg/kg/injection, schedule: Q01DX009 (ip), vehicle: other 100 % of control | dose: 25.0 mg/kg/injection, schedule: Q01DX009 (ip), vehicle: other 100 % of control | dose: 50.0 mg/kg/injection, schedule: Q01DX009 (ip), vehicle: other 94 % of control | dose: 100.0 mg/kg/injection, schedule: Q01DX009 (ip), vehicle: other 87 % of control

CCCCCCCCCCCCCCCCCC(=O)NN
inactive: [11] 103 % of control | [12] 98 % of control | [9] 105 % of control | dose: 100.0 mg/kg/injection, schedule: Q01DX009 (ip), vehicle: carboxymethylcellulose (CMC) 94 % of control

CC(=O)OCC1OC(OC2=C(CC=C(C)C)C(=O)c3ccccc3C2=O)C(OC(C)=O)C(OC(C)=O)C1OC(C)=O (configuration not stated)
inactive: [10] 95 % of control and 98 % of control | [11] 87 % of control | [12] 87 % of control | [9] 88 % of control and 91 % of control | [6] 92 % of control
